# In patent US4087450A, “(Polychlorophenoxy) methyl esters of thiocyanic acid” (priority 1977, dated 1978):
# Assays:
# [1] = system: Trichoderma species 42; experiment: conventional agar dilution test, 100% growth inhibition; assay type: cell-based; conditions: Trichoderma species 42, agar dilution; read-out: Concentration for 100% Growth Inhibition
# Excerpt: (§1) In representative operations, the compounds of the present invention when tested for their activity as antimicrobials using conventional agar dilution tests give complete growth inhibition against C. albicans, T. mentagrophytes, C. pelliculosa, R. nigricans, C. ips, C. fragans and Trichoderma sp. 42. The following Table provides test data summaries in comparison with the activity of art compounds.
# [2] = system: Rhizopus nigricans; experiment: as above; assay type: cell-based; conditions: Rhizopus stolonifer, read-out: Concentration for 100% Growth Inhibition
# Excerpt: as §1
# [3] = system: Trichophyton mentagrophytes; experiment: as above; assay type: cell-based; conditions: read-out: Concentration for 100% Growth Inhibition
# Excerpt: as §1
# [4] = system: Candida albicans; experiment: as above; assay type: cell-based; conditions: read-out: Concentration for 100% Growth Inhibition
# Excerpt: as §1
# [5] = system: Ceratocystis ips; experiment: as above; assay type: cell-based; conditions: read-out: Concentration for 100% Growth Inhibition
# Excerpt: as §1
# [6] = system: Pullularia pullulans; experiment: as above; assay type: cell-based; conditions: read-out: Concentration for 100% Growth Inhibition
# Excerpt: as §1
# [7] = system: Candida pelliculosa; experiment: as above; assay type: cell-based; conditions: Hansenula anomala, read-out: Concentration for 100% Growth Inhibition
# Excerpt: as §1
# [8] = volatility determination, retention on glass fiber paper; assay type: physicochemical; conditions: 50° C. oven for 7 days, average of duplicate determinations
# Procedure: (§2) To determine volatility and water solubility of the compounds, the following procedure was used: A 0.1 g. portion of each compound was dissolved in 2.0 ml. acetone. One-half of this solution was placed on a dry, pre-weighed, 7 cm. diameter sheet of glass fiber paper (Reeve Angel #934AH). The fiber paper was allowed to air dry for 24 hours and was re-weighed to determine the amount (0.05 g.) of the compound present. The other half of the solution was used to impregnate similarly another sheet of glass fiber paper. For the volatility determination, one of the papers was placed in a 50° C. oven for 7 days, removed, air cooled for 24 hours, and weighed. The percent retention given in Table II was calculated by the following formula: [formula]
# [9] = water-leachability determination, retention on glass fiber paper; assay type: physicochemical; conditions: leached 8 hours, 20° C. water at 10 ml./sec., average of duplicate determinations
# Procedure: as §2
# For the water-leachability determination, the second impregnated paper was leached for 8 hours with 20° C. water running at 10 ml./sec. The fiber paper was allowed to air dry for 24 hours, then re-weighed. The percent retention was also calculated by the above formula. The figures recorded in following Table II represent the average of duplicate determinations.
# [10] = system: important fungi; experiment: fungicidal activity against important fungi; conditions: in words
# [11] = system: mold growth; experiment: outdoor exposure test, preservation of acrylic latex paint (modified ASTM D-1006); parameters: key to mold growth rating, 4 Mo. / mold growth rating, 5 Mo. / mold growth rating, 8 Mo.: 1: No mold growth; 2: Trace, <5% growth; 3: Trace, 5-10% growth; 4: 10-25% growth; 25-50% growth; 6: 50-70% growth; 70-90% growth; 8: 90-95% growth; 9: 100% growth; 100% growth, severe; conditions: for mold growth rating, 4 Mo.: 4 months outdoor; for mold growth rating, 5 Mo.: 5 months outdoor; for mold growth rating, 8 Mo.: 8 months outdoor; for mold growth rating, 10 Mo.: 10 months outdoor
# Excerpt: (§3) Using a modification of ASTM D-1006, clear sapwood ponderosa pine boards 1/2 inch × 6 inches × 36 inches were primed with an unpreserved alkyd coating. A single coat of paint (alkyd or acrylic latex) incorporating compound (I) was brush applied. The boards were then exposed to the elements at Lake Jackson, Texas, and periodically readings were taken using the following rating scale: […]
# [12] = system: Tunicates; experiment: marine antifoulant activity, fouling of test panels; conditions: Compound I 0.14 g. in panel, TBTO 0.13 g. in panel, seawater
# Procedure: (§4) The compounds of this invention also repel or are toxic towards lower forms of marine life such as barnacles, and thereby function effectively as marine antifoulants. In evaluating marine antifoulant activity, a comparison of compound (I) vs. a standard antifouling toxicant, bis(tri-n-butyltin) oxide (TBTO), was carried out by treating pre-weighed 21/2 inch by 21/2 inch by 1/4 inch porous silica test panels with a solution of the individual compound in methyl isobutyl ketone, allowing the solvent to air dry to constant weight, and then immersing the panels in seawater at a subtropical location which has dense populations of fouling organisms. Under these conditions, an untreated panel became completely fouled after two months' exposure.
# [13] = system: Microfouling; experiment: as above; conditions: Compound I 0.14 g. in panel, TBTO 0.13 g. in panel, seawater
# Procedure: as §4
# [14] = system: Encrusting Bryozoans; experiment: as above; conditions: Compound I 0.14 g. in panel, TBTO 0.13 g. in panel, seawater
# Procedure: as §4
# [15] = system: Oysters; experiment: as above; conditions: Compound I 0.14 g. in panel, TBTO 0.13 g. in panel, seawater
# Procedure: as §4
# [16] = system: Hydroids; experiment: as above; conditions: Compound I 0.14 g. in panel, TBTO 0.13 g. in panel, seawater
# Procedure: as §4
# [17] = system: Barnacles; experiment: as above; conditions: Compound I 0.14 g. in panel, TBTO 0.13 g. in panel, seawater
# Procedure: as §4
# [18] = system: Tube Worms; experiment: as above; conditions: Compound I 0.14 g. in panel, TBTO 0.13 g. in panel, seawater
# Procedure: as §4
# [19] = system: Algae; experiment: as above; conditions: Compound I 0.14 g. in panel, TBTO 0.13 g. in panel, seawater
# Procedure: as §4
# [20] = system: Algae Spores; experiment: as above; conditions: Compound I 0.14 g. in panel, TBTO 0.13 g. in panel, seawater
# Procedure: as §4
# [21] = system: mold growth; experiment: outdoor exposure test, preservation of alkyd paint (modified ASTM D-1006); parameters: key to mold growth rating, 8 Mo. / mold growth rating, 4 Mo. / mold growth rating, 5 Mo.: 1: No mold growth; 2: Trace, <5% growth; 3: Trace, 5-10% growth; 4: 10-25% growth; 25-50% growth; 6: 50-70% growth; 70-90% growth; 8: 90-95% growth; 9: 100% growth; 100% growth, severe; conditions: for mold growth rating, 4 Mo.: 4 months outdoor; for mold growth rating, 5 Mo.: 5 months outdoor; for mold growth rating, 8 Mo.: 8 months outdoor; for mold growth rating, 10 Mo.: 10 months outdoor
# Excerpt: as §3
smiles,measurement,setting,value
N#CSCOc1ccc(Cl)cc1 [III],MIC,[1],100 µg/mL
same,MIC,[2],500 µg/mL
same,MIC,[3],100 µg/mL
same,MIC,[4],500 µg/mL
same,MIC,[5],500 µg/mL
same,MIC,[6],500 µg/mL
same,MIC,[7],500 µg/mL
same,"Percent Retention, Volatility",[8],2%
same,"Percent Retention, Water Extraction",[9],80%
N#CSCOc1c(Cl)c(Cl)c(Cl)c(Cl)c1Cl [pentachloro-(thiocyanatomethoxy)- benzene],"fungicidal activity against important fungi, relative to the compounds of this invention",[10],a small fraction of that of the compounds herein claimed
"N#CSCOc1cc(Cl)c(Cl)cc1Cl [Compound I, Thiocyanic Acid, (2,4,5-Trichlorophenoxy)Methyl Ester]",MIC,[1],10 µg/mL
same,MIC,[2],10 µg/mL
same,MIC,[3],0.1 µg/mL
same,MIC,[4],10 µg/mL
same,MIC,[5],1 µg/mL
same,MIC,[6],10 µg/mL
same,MIC,[7],10 µg/mL
same,"Percent Retention, Volatility",[8],74%
same,"mold growth rating, 4 Mo.",[11]; 0.5 wt. % (I),1
same,"mold growth rating, 5 Mo.",[11]; 0.5 wt. % (I),1
same,"mold growth rating, 8 Mo.",[11]; 0.5 wt. % (I),1
same,"mold growth rating, 10 Mo.",[11]; 0.5 wt. % (I),"2 (Trace, <5% growth)"
same,"mold growth rating, 4 Mo.",[11]; 1.0 wt. % (I),1
same,"mold growth rating, 5 Mo.",[11]; 1.0 wt. % (I),1
same,"mold growth rating, 8 Mo.",[11]; 1.0 wt. % (I),1
same,"mold growth rating, 10 Mo.",[11]; 1.0 wt. % (I),"2 (Trace, <5% growth)"
same,Percent Fouling of Test Panels,[12],0%
same,Percent Fouling of Test Panels,[13],0%
same,Percent Fouling of Test Panels,[14],0%
same,Percent Fouling of Test Panels,[15],0%
same,Percent Fouling of Test Panels,[16],0%
same,Percent Fouling of Test Panels,[17],0%
same,Percent Fouling of Test Panels,[18],0%
same,Percent Fouling of Test Panels,[19],0%
same,Percent Fouling of Test Panels,[20],30%
same,"mold growth rating, 4 Mo.",[21]; 0.4 wt. % (I),9 (100% growth)
same,"mold growth rating, 5 Mo.",[21]; 0.4 wt. % (I),9 (100% growth)
same,"mold growth rating, 8 Mo.",[21]; 0.4 wt. % (I),1
same,"mold growth rating, 10 Mo.",[21]; 0.4 wt. % (I),"2 (Trace, <5% growth)"
same,"mold growth rating, 4 Mo.",[21]; 0.6 wt. % (I),8 (90-95% growth)
same,"mold growth rating, 5 Mo.",[21]; 0.6 wt. % (I),9 (100% growth)
same,"mold growth rating, 8 Mo.",[21]; 0.6 wt. % (I),1
same,"mold growth rating, 10 Mo.",[21]; 0.6 wt. % (I),"2 (Trace, <5% growth)"
same,"mold growth rating, 4 Mo.",[21]; 0.8 wt. % (I),4 (10-25% growth)
same,"mold growth rating, 5 Mo.",[21]; 0.8 wt. % (I),"3 (Trace, 5-10% growth)"
same,"mold growth rating, 8 Mo.",[21]; 0.8 wt. % (I),1
same,"mold growth rating, 10 Mo.",[21]; 0.8 wt. % (I),"2 (Trace, <5% growth)"
same,"mold growth rating, 4 Mo.",[21]; 1.0 wt. % (I),1
same,"mold growth rating, 5 Mo.",[21]; 1.0 wt. % (I),1
same,"mold growth rating, 8 Mo.",[21]; 1.0 wt. % (I),1
same,"mold growth rating, 10 Mo.",[21]; 1.0 wt. % (I),"2 (Trace, <5% growth)"
same,"Percent Retention, Water Extraction",[9],92%
N#CSCOc1c(Cl)c(Cl)c(Cl)c(Cl)c1Cl [VI],MIC,[1],> 500 µg/mL
same,MIC,[2],> 500 µg/mL
same,MIC,[3],100 µg/mL
same,MIC,[4],> 500 µg/mL
same,MIC,[5],> 500 µg/mL
same,MIC,[6],> 500 µg/mL
same,MIC,[7],> 500 µg/mL
same,"Percent Retention, Volatility",[8],97%
same,"Percent Retention, Water Extraction",[9],98%
"CCC[CH2][Sn]([CH2]CCC)([CH2]CCC)[O][Sn]([CH2]CCC)([CH2]CCC)[CH2]CCC [TBTO, bis(tri-n-butyltin) oxide, reference compound]",Percent Fouling of Test Panels,[12],0%
same,Percent Fouling of Test Panels,[13],0%
same,Percent Fouling of Test Panels,[14],0%
same,Percent Fouling of Test Panels,[15],0%
same,Percent Fouling of Test Panels,[16],0%
same,Percent Fouling of Test Panels,[17],0%
same,Percent Fouling of Test Panels,[18],0%
same,Percent Fouling of Test Panels,[19],0%
same,Percent Fouling of Test Panels,[20],20%
Cc1cc(OCSC#N)ccc1Cl [IV],MIC,[1],100 µg/mL
same,MIC,[2],500 µg/mL
same,MIC,[3],100 µg/mL
same,MIC,[4],500 µg/mL
same,MIC,[5],500 µg/mL
same,MIC,[6],500 µg/mL
same,MIC,[7],500 µg/mL
same,"Percent Retention, Volatility",[8],12%
same,"Percent Retention, Water Extraction",[9],71%
"N#CSCOc1c(Cl)cc(Cl)c(Cl)c1Cl [II, Thiocyanic Acid, (2,3,4,6-Tetrachlorophenoxy)Methyl Ester]",MIC,[1],1 µg/mL
same,MIC,[2],100 µg/mL
same,MIC,[3],1 µg/mL
same,MIC,[4],10 µg/mL
same,MIC,[5],1 µg/mL
same,MIC,[6],1 µg/mL
same,MIC,[7],10 µg/mL
same,"Percent Retention, Volatility",[8],49%
same,"Percent Retention, Water Extraction",[9],96%
N#CSCOc1ccc(Cl)cc1Cl [Compound V],MIC,[1],10 µg/mL
same,MIC,[2],10 µg/mL
same,MIC,[3],1 µg/mL
same,MIC,[4],100 µg/mL
same,MIC,[5],10 µg/mL
same,MIC,[6],10 µg/mL
same,MIC,[7],10 µg/mL
same,"Percent Retention, Volatility",[8],6%
same,"Percent Retention, Water Extraction",[9],52%
